pIC50: −log10 of the molar value. Like-named read-outs stand apart in the source and are kept apart here.
Experiments:
[1] = test system: Huh-7 ET, Molt-4, DU-145, Hep-G2 and SH-SY5Y cells; assay: [3H]Thymidine incorporation assay (cytotoxicity, CC50); details: [3H]thymidine incorporation; cell line not given
[2] = test system: HCV sub-genomic replicon of genotype 1a in replicon cell line W11.8; assay: microbe, parasite or virus in culture; format: cell-based, Hepatitis C virus; details: read-out: HCV-Replicon-ELISA-1a IC50
[3] = [3H]Thymidine incorporation assay (cytotoxicity, CC50); details: human
[4] = test system: HCV replicon (genotype 1b) in Huh7 hepatoma cell line ET; assay: microbe, parasite or virus in culture; format: cell-based, Hepatitis C virus; details: Hepatitis C virus, Huh-7, 96 h, read-out: HCV-Replicon-1b_IC50

Row | Compound | CC50 [1] | pIC50 [2] | CC50 at 72 h [3] | pIC50 ([2]; Hepatitis C virus, W11.8, 96 h) | pIC50 [4]
1 | 3-[Cyclohex-3-enyl-(trans-4-methyl-cyclohexanecarbonyl)-amino]-5-(3,3-dimethyl-but-1-ynyl)-thiophene-2-carboxylic acid [Compound 13] | 10 to 100 µM | 5.00 to 6.00 |  |  | 
2 | 5-(3,3-dimethylbut-1-yn-1-yl)-3-(trans-4-methyl-N-((S)-1-methylsulfonyl)pyrrolidin-3-yl)thiophene-2-carboxylic acid [Compound 68] | > 100 µM | > 7.00 |  |  | 
3 | 5-(3,3-dimethylbut-1-yn-1-yl)-3-(trans-4-methyl-N—((R)-1-methylsulfonyl)pyrrolidin-3-yl)thiophene-2-carboxylic acid [Compound 69] | > 100 µM | > 7.00 |  |  | 
4 | CC[C@@H](C(=O)O)N(c1cc(C#CC(C)(C)C)sc1C(=O)O)C(=O)[C@H]1CC[C@H](C)CC1 (relative stereo) [Compound 41, 3-(N—((S)-1-carboxypropyl)-(4-trans-methylcyclohexane)-carboxamido)-5-(3,3-dimethylbut-1-yn-1-yl)thiophene-2-carboxylic acid] | > 100 µM | > 7.00 |  |  | 
5 | CC(=O)N1CC[C@H](N(c2cc(C#CC(C)(C)C)sc2C(=O)O)C(=O)[C@H]2CC[C@H](C)CC2)C1 (stereo in doubt) [Compound 59, 3-(N—((S)-1-Acetylpyrrolidin-3-yl)-4-trans-methylcyclohexanecarboxamido)-5-(3,3-dimethylbut-1-yn-1-yl)thiophene-2-carboxylic acid] | > 100 µM | > 7.00 |  |  | 
6 | CC(=O)N1CC[C@@H](N(c2cc(C#CC(C)(C)C)sc2C(=O)O)C(=O)[C@H]2CC[C@H](C)CC2)C1 (stereo in doubt) [Compound 60, 3-(N—((R)-1-Acetylpyrrolidin-3-yl)-4-trans-methylcyclohexane-carboxamido)-5-(3,3-dimethylbut-1-yn-1-yl)thiophene-2-carboxylic acid] | > 100 µM | 6.00 to 7.00 |  |  | 
7 | COCCN(c1cc(C#CC(C)(C)C)sc1C(=O)O)C(=O)[C@H]1CC[C@H](C)CC1 [Compound 29, 5-(3,3-Dimethylbut-1-ynyl)-3-(N-(2-methoxyethyl)-4-trans-methylcyclohexanecarboxamido)thiophene-2-carboxylic acid] | 10 to 100 µM | > 7.00 |  |  | 
8 | COCC(COC)N(c1cc(C#CC(C)(C)C)sc1C(=O)O)C(=O)[C@H]1CC[C@H](C)CC1 [Compound 39, 3-(-N-(1,3-Dimethoxypropan-2-yl)-4-trans-methylcyclohexanecarboxamido)-5-(3,3-dimethylbut-1-yn-1-yl)thiophene-2-carboxylic acid] | 10 to 100 µM | 6.00 to 7.00 |  |  | 
9 | CC(C)C#Cc1cc(N(C(=O)[C@H]2CC[C@H](C)CC2)C2CCOCC2)c(C(=O)O)s1 [Compound 43, 3-(N-(tetrahydro-2H-pyran-4-yl)-4-trans-methyl-cyclohexanecarboxamido)-5-(3-methylbut-1-yn-1-yl)thiophene-2-carboxylic acid] | 10 to 100 µM | > 7.00 |  |  | 
10 | Cc1noc(C)c1CN(c1cc(C#CC(C)(C)C)sc1C(=O)O)C(=O)[C@H]1CC[C@H](C)CC1 [Compound 54, 5-(3,3-Dimethylbut-1-yn-1-yl)-3-(N-((3,5-dimethylisoxazol-4-yl)methyl)-4-trans-methylcyclohexanecarboxamido)thiophene-2-carboxylic acid] | 10 to 100 µM | > 7.00 |  |  | 
11 | CC(C)C#Cc1cc(N(C(=O)[C@H]2CC[C@H](C)CC2)[C@H]2CC[C@@H](OCCO)CC2)c(C(=O)O)s1 [Compound 61, 5-(3-Methylbut-1-yn-1-yl)-3-((N-4-cis-(2-hydroxy)-ethoxycyclohexyl)-(4-trans-methylcyclohexane)carboxamido)thiophene-2-carboxylic acid] | 10 to 100 µM | 6.00 to 7.00 |  |  | 
12 | CC(C)C#Cc1cc(N(C(=O)[C@H]2CC[C@H](C)CC2)[C@H]2CC[C@H](OCCO)CC2)c(C(=O)O)s1 [Compound 62, 5-(3-Methylbut-1-yn-1-yl)-3-((N-4-trans-(2-hydroxy)-ethoxycyclohexyl)-(4-trans-methylcyclohexane)carboxamido)thiophene-2-carboxylic acid] | 10 to 100 µM | > 7.00 |  |  | 
13 | CN(C)C(=O)[C@H]1C[C@H](N(c2cc(C#CC(C)(C)C)sc2C(=O)O)C(=O)[C@H]2CC[C@H](C)CC2)C1 [Compound 63, 5-(3,3-Dimethylbut-1-yn-1-yl)-3-(N-(3-trans-(dimethylcarbamoyl)-cyclobutyl)-4-trans-methylcyclohexanecarboxamido)thiophene-2-carboxylic acid] | > 100 µM | > 7.00 |  |  | 
14 | CN(C)C[C@H]1C[C@H](N(c2cc(C#CC(C)(C)C)sc2C(=O)O)C(=O)[C@H]2CC[C@H](C)CC2)C1 [Compound 70, 5-(3,3-Dimethylbut-1-yn-1-yl)-3-(trans-4-methyl-N((trans-3-(dimethylamino)methyl)cyclobutyl)cyclohexanecarboxamido)thiophene-2 carboxylic acid] | > 100 µM | > 7.00 |  |  | 
15 | CC(CN(c1cc(C#CC(C)(C)C)sc1C(=O)O)C(=O)[C@H]1CC[C@H](C)CC1)n1cccn1 (stereo partly drawn) [Compound 73, 5-(3,3-Dimethylbut-1-ynyl)-3-[(4-trans-methylcyclohexanecarbonyl)-(2-pyrazol-1-ylpropyl)amino]thiophene-2-carboxylic acid] | 10 to 100 µM | > 7.00 |  |  | 
16 | CC(C)(C)C#Cc1cc(N(Cc2ccccc2)C(=O)[C@H]2CC[C@H](C)CC2)c(C(=O)O)s1 [Compound 74, 3-[Benzyl-(4-trans-methylcyclohexanecarbonyl)amino]-5-(3,3-dimethylbut-1-ynyl)thiophene-2-carboxylic acid] | 10 to 100 µM | 6.00 to 7.00 |  |  | 
17 | CCc1noc(C(C)N(c2cc(C#CC(C)(C)C)sc2C(=O)O)C(=O)[C@H]2CC[C@H](C)CC2)n1 (stereo partly drawn) [Compound 75] | 10 to 100 µM | > 7.00 |  |  | 
18 | CC(C)(C)C#Cc1cc(N(C(=O)[C@H]2CC[C@H](C)CC2)[C@H]2C[C@@H](CO)C2)c(C(=O)O)s1 [Compound 76, 5-(3,3-dimethylbut-1-yn-1-yl)-3-(trans-4-methyl-N-(cis-3-(hydroxymethyl)cyclobutyl)cyclohexanecarboxamido)thiophene-2-carboxylic acid] |  |  | > 100 µM | > 7.00 | 
19 | Cn1nccc1CN(c1cc(C#CC(C)(C)C)sc1C(=O)O)C(=O)[C@H]1CC[C@H](C)CC1 [Compound 77, 5-(3,3-Dimethylbut-1-ynyl)-3-((trans)-4-methyl-N-((1-methyl-1H-pyrazol-5-yl)methyl)cyclohexanecarboxamido)thiophene-2-carboxylic acid] |  |  | > 100 µM | > 7.00 | 
20 | CCc1noc(CN(c2cc(C#CC(C)(C)C)sc2C(=O)O)C(=O)[C@H]2CC[C@H](C)CC2)n1 [Compound 78, 5-(3,3-dimethylbut-1-ynyl)-3-[(3-ethyl-1,2,4-oxadiazol-5-yl)methyl-(4-trans-methylcyclohexanecarbonyl)amino]thiophene-2-carboxylic acid] | 10 to 100 µM | > 7.00 |  |  | 
21 | CC(C)c1noc(C(C)N(c2cc(C#CC(C)(C)C)sc2C(=O)O)C(=O)[C@H]2CC[C@H](C)CC2)n1 (stereo partly drawn) [Compound 79] | 10 to 100 µM | 6.00 to 7.00 |  |  | 
22 | CC(Cn1cccn1)N(c1cc(C#CC(C)(C)C)sc1C(=O)O)C(=O)[C@H]1CC[C@H](C)CC1 (stereo partly drawn) [Compound 80, 5-(3,3-Dimethylbut-1-ynyl)-3-[(4-trans-methylcyclohexanecarbonyl)-(1-methyl-2-pyrazol-1-yl-ethyl)amino]thiophene-2-carboxylic acid] | 10 to 100 µM | > 7.00 |  |  | 
23 | CC(C)(C)C#Cc1cc(N(C(=O)c2ccc(C(F)(F)F)cc2)[C@H]2CC[C@H](O)CC2)c(C(=O)O)s1 [Compound 82, 5-(3,3-Dimethyl-but-1-ynyl)-3-[(trans-4-hydroxy-cyclohexyl)-(4-trifluoromethyl-benzoyl)-amino]thiophene-2-carboxylic acid] |  |  | 10 to 100 µM | 6.00 to 7.00 | 
24 | Cc1ccc(C(=O)N(c2cc(C#CC(C)(C)C)sc2C(=O)O)[C@H]2CC[C@H](O)CC2)c(C)c1 [Compound 83, 3-[(2,4-Dimethyl-benzoyl)-(trans-4-hydroxy-cyclohexyl)-amino]-5-(3,3-dimethyl-but-1-ynyl)-thiophene-2-carboxylic acid] |  |  |  |  | 6.00 to 7.00
25 | Cc1ccc(C(=O)N(c2cc(C#CC(C)(C)C)sc2C(=O)O)[C@H]2CC[C@H](O)CC2)c(F)c1 [Compound 85, 5-(3,3-Dimethyl-but-1-ynyl)-3-[(2-fluoro-4-methyl-benzoyl)-(trans-4-hydroxy-cyclohexyl)-amino]thiophene-2-carboxylic acid] |  |  | 10 to 100 µM | > 7.00 | 
26 | Cc1ccc(C(=O)N(c2cc(C#CC(C)(C)C)sc2C(=O)O)[C@H]2CC[C@H](O)CC2)cc1 [Compound 86, 5-(3,3-Dimethyl-but-1-ynyl)-3-[(trans-4-hydroxy-cyclohexyl)-(4-methyl-benzoyl)-amino]-thiophene-2-carboxylic acid] |  |  | 10 to 100 µM | > 7.00 | 
27 | CC(C)(C)C#Cc1cc(N(C(=O)c2ccc(Cl)cc2Cl)[C@H]2CC[C@H](O)CC2)c(C(=O)O)s1 [Compound 90, 3-[(2,4-Dichloro-benzoyl)-(trans-4-hydroxy-cyclohexyl)-amino]-5-(3,3-dimethyl-but-1-ynyl)-thiophene-2-carboxylic acid] |  |  | 10 to 100 µM | 6.00 to 7.00 | 
28 | Cc1ccc(C(=O)N(c2cc(C#CC(C)(C)C)sc2C(=O)O)[C@H]2CC[C@H](O)CC2)cc1F [Compound 93, 5-(3,3-Dimethyl-but-1-ynyl)-3-[(3-fluoro-4-methyl-benzoyl)-(trans-4-hydroxy-cyclohexyl)-amino]thiophene-2-carboxylic acid] |  |  |  |  | 6.00 to 7.00

Reference: patent US20140065103A1 (VERTEX PHARMACEUTICALS INCORPORATED, priority 2010, published 2014)
